Measured values reported in paper PMC7496931, “Activation of Sirtuin 2 Inhibitors Employing Photoswitchable Geometry and Aqueous Solubility” (Chemmedchem, 2020).
Values belong to the molecule of their own block, whether it stands above or below them.

Target: T1, Sirt2 (Homo sapiens, UniProt Q8IXJ6)
T1 construct: Expression and purification of Sirt1_133−747, Sirt2_56−356, and Sirt3_118−395 was carried out as described previously; made in house
T1 sequence (Q8IXJ6 56-356): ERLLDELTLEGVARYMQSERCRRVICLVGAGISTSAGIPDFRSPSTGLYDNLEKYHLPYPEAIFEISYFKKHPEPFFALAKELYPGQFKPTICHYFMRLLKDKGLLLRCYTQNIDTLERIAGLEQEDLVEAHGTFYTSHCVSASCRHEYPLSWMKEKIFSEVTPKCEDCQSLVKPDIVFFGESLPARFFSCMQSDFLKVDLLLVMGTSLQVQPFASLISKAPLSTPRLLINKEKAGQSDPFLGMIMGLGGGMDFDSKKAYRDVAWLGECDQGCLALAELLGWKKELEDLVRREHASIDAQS
Experiment: FP-based binding assay (competition with fluorescently labelled SirReal probe)
Set-up: key to Sirt2 inhibition FP-Assay (class): n.i. = no inhibition detected
From the text: This conformational change is also observed upon binding of numerous other compounds as myristoylated substrates, for instance.23 A recently developed fluorescence polarization (FP)‐based binding assay was utilized to determine whether our compounds are able to prevent binding of a fluorescently labelled SirReal to the catalytic core of Sirt2.7 Serendipitously, competition with the fluorescent probe could be confirmed for 7 f (Table S3). […] Therefore, this scaffold seemed to be a promising structure for further derivatization. […]
yielding the percentage substrate conversion. Comparison of the determined substrate conversion with a no-inhibition DMSO control yields the percentage inhibition at the respective […]
For determination of IC50, inhibitory activity of the respective compound was determined at 8 to 10 distinct concentrations. The measured values were analysed by a non-linear fit to the dose-response curve using a four parameter logistic model (Figure S6):
Figure S6: Non-linear regression of the dose-response curves of compounds 15c and 15f at the thermal equilibrium (∆, black) and after 5 minutes of 365 nm irradiation (red). […]
before 5 µL of the solution of 21 (40 nM final assay concentration) were added. After further 30 min of incubation at 37 °C the fluorescence intensities were recorded with an EnVisionTM plate reader (PerkinElmer) with the following settings: optical module – BODIPY TMR FP, excitation filter – FP 531 nm, emission filter 1 – FP p-pol 595 nm, emission filter 2 – FP s-pol 595 nm. Fluorescence polarization (P) values were determined as […] (mP), […]
where Is/IP are the fluorescence intensities measured in the s- and the p-plane respectively, both blank corrected. […] Inhibition was calculated from fluorescence polarization in relation to the maximal polarization and minimal […]
Table S3: Compounds 7c, 7f and 9a examined in the FP-based binding assay and in the ZMAL activity assay. Inhibition of Sirt2 in the FP-based binding assay indicates displacement of the fluorescence-labelled SirReal probe and implies a similar binding mode. […]

Sirt2 inhibition FP-Assay (class): n.i.
Compound: NC(=O)c1cncc(/N=N/c2c(O)ccc3ccccc23)c1 [7 c]

inhibition at 10 µM (@ 10 µM, read-out: Sirt2 inhibition FP-Assay, % inhibition of binding of the fluorescent probe): 46%
Compound: Cc1cc(/N=N/c2cncc(C(N)=O)c2)cc(C)c1N [7 f]

inhibition at 100 µM (@ 100 µM, read-out: Sirt2 inhibition FP-Assay, % inhibition of binding of the fluorescent probe): 69%
Compound: CC(=O)Nc1c(C)cc(/N=N/c2cncc(C(N)=O)c2)cc1C [9 a]
